Several values for one entry are separate records, joined by “and”; a condition that tells them apart may be missing. Equal entries are not always repeated. Entries after “also recorded” stand apart in the source; their conditions may differ. Where two headings read alike, the source gives them in different places.
What was measured:
Hsp70-GST [1] = molecular target: T1, Hsp70-GST (Homo sapiens, UniProt P0DMV8); assay: Microarray-based screen of the focused library against Hsp70-GST (fluorescence, anti-GST DyLight 649); type: binding; details: fluorescence intensity on the microarray, mean of four spots, SD between 5% and 10%; PNA-tagged library member
T1 construct: purchased Signal Chem H34-54G
T1 sequence (P0DMV8 whole entry): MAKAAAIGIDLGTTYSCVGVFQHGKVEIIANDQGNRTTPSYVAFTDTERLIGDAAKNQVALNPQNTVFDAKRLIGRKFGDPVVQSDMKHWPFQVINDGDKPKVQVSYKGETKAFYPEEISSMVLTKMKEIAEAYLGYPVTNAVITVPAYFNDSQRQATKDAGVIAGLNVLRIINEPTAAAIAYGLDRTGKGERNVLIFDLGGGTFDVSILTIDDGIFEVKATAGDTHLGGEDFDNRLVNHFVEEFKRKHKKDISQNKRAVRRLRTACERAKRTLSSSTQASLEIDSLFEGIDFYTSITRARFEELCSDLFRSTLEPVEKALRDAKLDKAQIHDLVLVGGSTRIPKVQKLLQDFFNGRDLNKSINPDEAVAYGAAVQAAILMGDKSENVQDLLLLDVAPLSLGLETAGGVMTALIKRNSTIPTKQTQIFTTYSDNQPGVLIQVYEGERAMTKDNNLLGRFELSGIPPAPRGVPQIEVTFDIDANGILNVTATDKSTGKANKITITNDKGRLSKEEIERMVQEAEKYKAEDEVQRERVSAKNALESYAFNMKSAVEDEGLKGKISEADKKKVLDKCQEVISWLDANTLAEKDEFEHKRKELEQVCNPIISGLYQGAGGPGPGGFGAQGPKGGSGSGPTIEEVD
From the text: A microarray pairing 125 biologically validated fragments[11] (FDA-approved drugs, bioactive natural products or fragments thereof) with a library of 500 heterocycles was used as a preliminary screen.[6] The microarray contained 62 500 unique DNA sequences that combinatorially paired both fragment libraries. […] The result from this screen with Hsp70 is shown in Fig. 2, arranged with fragments from the 125-fragment set and 500-fragment set on horizontal and vertical lines, respectively. The recurrence of binding across a line reflects the fitness of a given fragment. Thus, line intensities were used to rank the different fragments. What is interesting is that lines across the library of the 500-fragment set (4B, 24B, 44B, 84B, 124B, …) shared a common structural motif (biaryl-ether; Fig. 2). […] It is noteworthy that this biaryl moiety is part of a previously reported Hsp70 ligand (MAL3-101).[13],[14] […] Although screening fragments as conjugates to a nucleic acid tag restricts their binding mode to a particular orientation (the orientation that will position the linker to the tag toward the outside of the binding pocket), it greatly facilitates the synthesis of the corresponding covalent adduct combining both fragments, as the same chemistry that was used to link the fragments to the tag can be used to covalently pair them. Nonetheless, the linker length and conformational bias must be identified experimentally. We reasoned that the identified fragments could be used as the starting point for a focused library covalently pairing the fragments. This would allow for supplementing the selected fragment set with new entities (near neighbours) and enriching the local diversity space around these initial hits. Such iterative processes are highly efficient in sifting through a large diversity space. Following this strategy, we designed an Hsp70-focused library of 10 000 members using 20 fragments A × 5 different linkers with different lengths and geometrical constraints × 100 fragments B. The 100-fragment set contained 90 entities that were not present in the original screen. To be viable, an iterative library synthesis approach should be leveraged on chemistry that is compatible with SPPS and can be performed by automated PNA-encoded synthesis. As shown in Scheme 1, this was achieved through the use of three orthogonal amino group masking strategies (Mtt, Fmoc, and azide) that enabled selective chemical reactions at both sites of the linker joining the fragment and the encoding site. Thus, a resin derivatized with lysine with orthogonal protecting groups (Mtt and N3) was split into 100 pools and deprotected on one end (Mtt deprotection using HFIP), and the different linkers to join both fragments were introduced by standard peptide coupling method, affording the two sites for fragment coupling protected by Fmoc and Mtt, respectively.[15] The fragments were coupled using two different chemistries: for fragments containing a carboxylic acid, DIC/HOBt was used; for fragments with an amino group, hydroxyl, or aniline, the amino-functionalized linker was first treated with 4-nitrophenylchloroformate and the resulting carbamate coupled with the fragment. The azide was next reduced and the first 100 pools were encoded with a 7mer Boc-protected PNA sequence. The resins were mixed and split to introduce the second encoding 7mer sequence followed by deprotection of Mtt and the introduction of the corresponding second fragments. The success of each fragment coupling and encoding step was verified by MALDI analysis of an analytical sample. Cleavage of the final library and hybridization afforded the spatially resolved 10 000-member Hsp70-focused library. A slide containing 4-fold redundancy of each DNA sequence randomly distributed on the array was used to have four data points for each small molecule–target interaction, thus allowing a statistical analysis of the hits. The array was screened under three different conditions: Hsp70, Hsp70 + Hsp40, and Hsp70 + ATP. […]

Hsp90 [2] = assay: SPR affinity measurement, biotinylated compounds immobilized on a streptavidin chip, Hsp90 analyte; type: binding; details: compound immobilized on streptavidin chip, values in parentheses have chi2 > 10
Hsp70 [3] = molecular target: T2, Hsp70 (Homo sapiens, UniProt P0DMV8); assay: SPR affinity measurement, biotinylated compounds immobilized on a streptavidin chip, Hsp70 analyte; type: binding; details: compound immobilized on streptavidin chip, values in parentheses have chi2 > 10
T2 sequence (P0DMV8 whole entry): as above

Hsp70 [4] = molecular target: T2, Hsp70; assay: Fluorescence polarization displacement assay with 1-FITC; type: binding; details: 1-FITC 25 nM, Hsp70 100 nM; R2 = 0.998; read-out: Affinity for Hsp70 by fluorescence polarization displacement (IC50)
Hsp70/Hsp40 = molecular target: T3, Hsp70/Hsp40 (Homo sapiens, UniProt P0DMV8); assay: Malachite Green Hsp70 ATPase assay; type: biochemical; details: for inhibition at 1 µM: 1 molar equivalent to Hsp70 (1 μM), read-out: ATPase inhibition in dose response; for ATPase inhibition: 200 molar equivalence of inhibitor (200 μM), Hsp70/Hsp40 1 μM, ATP 1 mM
T3 construct: purchased Novus Biologicals NBC1-18367
T3 sequence (P0DMV8 whole entry): as above

[5] = molecular target: T4, Heat shock 70 kDa protein 1A/1B (Homo sapiens, UniProt P0DMV8); assay: Proteomic (MS-MS) analysis of pull-down from HEK crude cell lysate; type: binding; details: Hsp71_HUMAN in pull-down from HEK crude cell lysate
T4 construct: endogenous in cells; host or cells: HEK293-T
T4 sequence (P0DMV8 whole entry): as above

Hsp90 [6] = assay: Protein pull-down with ligand immobilized on streptavidin magnetic beads, Hsp90; type: binding; details: recombinant Hsp90 300 nM, SDS PAGE
carbonic anhydrase = molecular target: T5, carbonic anhydrase (Homo sapiens, UniProt P00918); assay: Pull-down from crude HEK cell lysates, Western blot for carbonic anhydrase (negative control); type: binding; details: HEK lysate, negative control protein
T5 construct: endogenous in cells; host or cells: HEK293-T

Hsp70-GST [7] = molecular target: T1, Hsp70-GST; assay: Protein pull-down with ligand immobilized on streptavidin magnetic beads, Hsp70; type: binding; details: recombinant Hsp70-GST 300 nM, SDS PAGE
Hsp70 [8] = molecular target: T2, Hsp70; assay: Pull-down of Hsp70 from crude HEK cell lysates, Western blot; type: binding; details: HEK lysate, Western blot with anti-Hsp70 antibody
Hsp70 [9] = molecular target: T2, Hsp70; design: method as in PMID 16806043; details: read-out: affinity of Hsp70 for ligand; cited from earlier work
Hsp70 [10] = molecular target: T2, Hsp70; design: method as in PMID 15448148; details: cited from earlier work

Structure (SMILES)	FU microarray HSP70-GST (Hsp70-GST [1])	Kd (Hsp90 [2]) [nM]	Kd (Hsp70 [3])	further results
COc1ccc(C=CC(=O)NCC(NC(=O)c2ccc(NC(=O)COCC(=O)NC(C)COc3c(C)cccc3C)cc2)C(=O)NCCCCC(NC(=O)COCCOCCNC(=O)CCCCC2SCC3NC(=O)NC32)C(N)=O)cc1OC (stereo not drawn) [Compound 10a]	28 961 FU	2.97	1.88 nM	–
Cc1ccc(/C=C/C(=O)NCC(NC(=O)c2ccc(NC(=O)CCC(=O)c3ccc(-c4ccccc4)cc3)cc2)C(N)=O)cc1 (stereo not drawn) [Compound 1b]	–	–	–	IC50 (Hsp70 [4]): 31 nM; inhibition at 1 µM (Hsp70/Hsp40): > 50%; ATPase inhibition (Hsp70/Hsp40): complete inhibition
CCC(COC(=O)NCCCCC(NC(=O)CC1=C(C)C(=Cc2ccc([S+](C)[O-])cc2)c2ccc(F)cc21)C(=O)NCCCCC(NC(=O)COCCOCCNC(=O)CCCCC1SCC2NC(=O)NC21)C(N)=O)c1ccccc1 (stereo not drawn) [Compound 13a]	27 215 FU	29.5	1.16 nM	–
COc1ccc(C=CC(=O)NCC(NC(=O)c2cccc(NC(=O)CCC(=O)c3ccc(-c4ccccc4)cc3)c2)C(=O)NCCCCC(NC(=O)COCCOCCNC(=O)CCCCC2SCC3NC(=O)NC32)C(N)=O)cc1OC (stereo not drawn) [Compound 8a]	27 982 FU	16.9	0.8 nM	–
Cc1ccc(C(=O)NCC(NC(=O)c2cccc(NS(=O)(=O)c3ccc(Oc4ccccc4)cc3)c2)C(=O)NCCCCC(NC(=O)COCCOCCNC(=O)CCCCC2SCC3NC(=O)NC32)C(N)=O)cc1[N+](=O)[O-] (stereo not drawn) [Compound 15a]	28 732 FU	35.3	1.3 nM	–
Cc1oncc1C(=O)Nc1ccc(O)c(C(=O)NCC(NC(=O)c2ccc(NC(=O)CCC(=O)c3ccc(-c4ccccc4)cc3)cc2)C(=O)NCCCCC(NC(=O)COCCOCCNC(=O)CCCCC2SCC3NC(=O)NC32)C(N)=O)c1 (stereo not drawn) [Compound 2a]	28 653 FU	–	1.58 nM	% Protein Coverage [5]: 24.8%; KD HSP90 (Hsp90 [2]): no measurable affinity; also recorded: Low binding; capture of Hsp90 on streptavidin magnetic beads (Hsp90 [6]): not Hsp90; retention of carbonic anhydrase from crude cell lysates (carbonic anhydrase): no carbonic anhydrase; capture of Hsp70 on streptavidin magnetic beads (Hsp70-GST [7]): retained Hsp70; retention of Hsp70 from crude cell lysates (Hsp70 [8]): retained Hsp70
CSc1nnc(CCCOC(=O)NCCCCC(NS(=O)(=O)c2ccc(-c3ccccc3)cc2)C(=O)NCCCCC(NC(=O)COCCOCCNC(=O)CCCCC2SCC3NC(=O)NC32)C(N)=O)n1-c1ccc(Cl)cc1Cl (stereo not drawn) [Compound 6a]	28 958 FU	18.7	2.33 nM	–
COc1ccc(C=CC(=O)NCC(NC(=O)c2cccc(NS(=O)(=O)c3ccc(-c4ccccc4)cc3)c2)C(=O)NCCCCC(NC(=O)COCCOCCNC(=O)CCCCC2SCC3NC(=O)NC32)C(N)=O)cc1OC (stereo not drawn) [Compound 14a]	28 588 FU	52.8	2.88 nM	–
CSc1nnc(CCCOC(=O)NCC(NC(=O)CC2=C(C)C(=Cc3ccc([S+](C)[O-])cc3)c3ccc(F)cc32)C(=O)NCCCCC(NC(=O)COCCOCCNC(=O)CCCCC2SCC3NC(=O)NC32)C(N)=O)n1-c1ccc(Cl)cc1Cl (stereo not drawn) [Compound 4a]	28 566 FU	10.7	2.69 nM	–
CSc1nnc(CCCOC(=O)NCC(NC(=O)CCC(=O)c2ccc(-c3ccccc3)cc2)C(=O)NCCCCC(NC(=O)COCCOCCNC(=O)CCCCC2SCC3NC(=O)NC32)C(N)=O)n1-c1ccc(Cl)cc1Cl (stereo not drawn) [Compound 12a]	28 174 FU	10.1	2.02 nM	–
NC(=O)C(CCCCNC(=O)C(CNC(=O)c1ccc2[nH]nc(Br)c2c1)NC(=O)c1cccc(NC(=O)CCC(=O)c2ccc(-c3ccccc3)cc2)c1)NC(=O)COCCOCCNC(=O)CCCCC1SCC2NC(=O)NC21 (stereo not drawn) [Compound 9a]	29 024 FU	14.7	0.64 nM	–
Nc1ncnc2c1ncn2[C@@H]1O[C@H](COP(=O)(O)OP(=O)(O)O)[C@@H](O)[C@H]1O [ADP]	–	–	–	Kd (Hsp70 [9]): 260 nM
NC(=O)C(CCCCNC(=O)C(CNC(=O)c1cccc(-c2cccnc2)c1)NC(=O)c1ccc(NC(=O)COCC(=O)N2CCCN(S(=O)(=O)c3cccc4cnccc34)CC2)cc1)NC(=O)COCCOCCNC(=O)CCCCC1SCC2NC(=O)NC21 (stereo not drawn) [Compound 5a]	28 447 FU	5.44	0.38 nM	–
CCCCCCN(C(=O)CCCCCN1C(=O)NC(c2ccc(-c3ccccc3)cc2)C(C(=O)OCc2ccccc2)=C1C)C(C(=O)NCCCC)c1ccc(OCC(=O)OC)c(C(=O)OC)c1 (stereo not drawn) [MAL3-101]	–	–	–	effect on Hsp70 ATPase activity (Hsp70 [10]): stimulate this activity
NC(=O)C(CCCCNC(=O)C(CCCCNC(=O)c1ccc2[nH]nc(Br)c2c1)NS(=O)(=O)c1ccc(-c2ccccc2)cc1)NC(=O)COCCOCCNC(=O)CCCCC1SCC2NC(=O)NC21 (stereo not drawn) [Compound 7a]	24 143 FU	3.17	1.34 nM	–
CC(C(=O)Nc1cccc(C(=O)NC(CNC(=O)c2ccc3[nH]nc(Br)c3c2)C(=O)NCCCCC(NC(=O)COCCOCCNC(=O)CCCCC2SCC3NC(=O)NC32)C(N)=O)c1)c1cccc(Oc2ccccc2)c1 (stereo not drawn) [Compound 11a]	27 941 FU	5.6	12 nM and 12.1 nM	–
Cc1oncc1C(=O)Nc1ccc(O)c(C(=O)NCC(NC(=O)c2ccc(NC(=O)CCC(=O)c3ccc(-c4ccccc4)cc3)cc2)C(N)=O)c1 (stereo not drawn) [Compound 2b]	–	–	–	inhibition at 1 µM (Hsp70/Hsp40): > 50%; ATPase inhibition (Hsp70/Hsp40): complete inhibition
